According to ChEMBL document CHEMBL4699579, “A Peptidyl Inhibitor that Blocks Calcineurin-NFAT Interaction and Prevents Acute Lung Injury” (J Med Chem, 2020):
Starred links: 1 amine or outer side, 2 acyl side, 3 side chain; linkers in the order of their positions; H or OH if unused. Non-standard residues stand in square brackets, D forms with d. Residues, ends and D or L forms follow the SMILES beside them. *: point of attachment. X5 = O=C(O)c1cc(NC(=S)*)ccc1-c1c2ccc(=O)cc-2oc2cc(O)ccc12; Benzoyl(2,3,4,5,6-F5) = O=C(c1c(F)c(F)c(F)c(F)c1F)*; Benzoyl(2,3-Cl2) = O=C(c1cccc(Cl)c1Cl)*; X3 = CC1(C)SC[C@@H](C(=O)[*:2])N1[*:1]; Cyclohexanecarbonyl = O=C(C1CCCCC1)*; Cyclopentanecarbonyl = O=C(C1CCCC1)*; X7 = O=C(c1cc(F)c(F)c(F)c1F)*; Tle = CC(C)(C)[C@H](N)C(=O)O; X4 = O=C(c1ccc(Br)c(Cl)c1)*; X6 = Cc1ccc(C(=O)*)c(F)c1F; AEEA = NCCOCCOCC(=O)O; Bz = O=C(c1ccccc1)*; βAla = NCCC(=O)O; For = O=C*

Legend:
[1] = Binding affinity to GST-tagged Calcineurin (unknown origin) incubated for 1 hr by fluorescence polarization assay; design: species or system Homo sapiens
[2] = Half life in 25% human serum at 5 uM at 37 degC by HPLC analysis; type: ADME, cell-free

In the case of `CC[C@H](C)[C@H](NC(=O)[C@@H](NC(=O)c1cc(F)c(F)c(F)c1F)C(C)(C)C)C(=O)N[C@H](C(=O)N[C@H](C(=O)N[C@H](C(=O)NCC(=O)N1CCC[C@H]1C(=O)N[C@@H](Cc1c[nH]cn1)C(=O)N[C@@H](CCC(=O)O)C(=O)N[C@@H](CCC(=O)O)C(=O)N[C@@H](Cc1ccc(O)cc1)C(=O)N[C@@H](CCCCNC(=S)Nc1ccc(-c2c3ccc(=O)cc-3oc3cc(O)ccc23)c(C(=O)O)c1)C(N)=O)[C@@H](C)O)[C@@H](C)CC)C(C)(C)C` (X7-[Tle]I[Tle]ITGPHEEYK(X5)-NH2), the Kd [1] is reported as 0.032 µM.

`CC[C@H](C)[C@H](NC(=O)[C@@H](NC(=O)c1cccc(Cl)c1Cl)C(C)(C)C)C(=O)N[C@H](C(=O)N[C@H](C(=O)N[C@H](C(=O)NCC(=O)N1CCC[C@H]1C(=O)N[C@@H](Cc1c[nH]cn1)C(=O)N[C@@H](CCC(=O)O)C(=O)N[C@@H](CCC(=O)O)C(=O)N[C@@H](Cc1ccc(O)cc1)C(=O)N[C@@H](CCCCNC(=S)Nc1ccc(-c2c3ccc(=O)cc-3oc3cc(O)ccc23)c(C(=O)O)c1)C(N)=O)[C@@H](C)O)[C@@H](C)CC)C(C)(C)C` ({Benzoyl(2,3-Cl2)}-[Tle]I[Tle]ITGPHEEYK(X5)-NH2) gave a Kd [1] of 0.041 µM.

In the case of `CC[C@H](C)[C@H](NC(=O)[C@@H](NC(=O)CNC(=O)[C@H](Cc1c[nH]cn1)NC(=O)[C@@H]1CCCN1C(=O)CNC(C)=O)C(C)(C)C)C(=O)N[C@H](C(=O)N[C@H](C(=O)N[C@H](C(=O)NCC(=O)N1CCC[C@H]1C(=O)N[C@@H](Cc1c[nH]cn1)C(=O)N[C@@H](CCC(=O)O)C(=O)N[C@@H](CCC(=O)O)C(=O)N[C@@H](Cc1ccc(O)cc1)C(=O)N[C@@H](CCCCNC(=S)Nc1ccc(-c2c3ccc(=O)cc-3oc3cc(O)ccc23)c(C(=O)O)c1)C(N)=O)[C@@H](C)O)[C@@H](C)CC)C(C)(C)C` (Ac-GPHG[Tle]I[Tle]ITGPHEEYK(X5)-NH2), the Kd [1] is reported as 0.092 µM.

With `CC[C@H](C)[C@H](NC(=O)[C@@H](NC(C)=O)C(C)(C)C)C(=O)N[C@H](C(=O)N[C@H](C(=O)N[C@H](C(=O)NCC(=O)N1CCC[C@H]1C(=O)N[C@@H](Cc1c[nH]cn1)C(=O)N[C@@H](CCC(=O)O)C(=O)N[C@@H](CCC(=O)O)C(=O)N[C@@H](Cc1ccc(O)cc1)C(=O)N[C@@H](CCCCNC(=S)Nc1ccc(-c2c3ccc(=O)cc-3oc3cc(O)ccc23)c(C(=O)O)c1)C(N)=O)[C@@H](C)O)[C@@H](C)CC)C(C)(C)C` (Ac-[Tle]I[Tle]ITGPHEEYK(X5)-NH2) the Kd [1] was > 5.4 µM.

Work on `CC[C@H](C)[C@H](NC(=O)[C@@H](NC(=O)c1ccc(Br)c(Cl)c1)C(C)(C)C)C(=O)N[C@H](C(=O)N[C@H](C(=O)N[C@H](C(=O)NCC(=O)N1CCC[C@H]1C(=O)N[C@@H](Cc1c[nH]cn1)C(=O)N[C@@H](CCC(=O)O)C(=O)N[C@@H](CCC(=O)O)C(=O)N[C@@H](Cc1ccc(O)cc1)C(=O)N[C@@H](CCCCNC(=S)Nc1ccc(-c2c3ccc(=O)cc-3oc3cc(O)ccc23)c(C(=O)O)c1)C(N)=O)[C@@H](C)O)[C@@H](C)CC)C(C)(C)C` (X4-[Tle]I[Tle]ITGPHEEYK(X5)-NH2) yielded a Kd [1] of 0.189 µM.

In the case of `CC[C@H](C)[C@H](NC(=O)[C@@H](NC=O)C(C)(C)C)C(=O)N[C@H](C(=O)N[C@H](C(=O)N[C@H](C(=O)NCC(=O)N1CCC[C@H]1C(=O)N[C@@H](Cc1c[nH]cn1)C(=O)N[C@@H](CCC(=O)O)C(=O)N[C@@H](CCC(=O)O)C(=O)N[C@@H](Cc1ccc(O)cc1)C(=O)N[C@@H](CCCCNC(=S)Nc1ccc(-c2c3ccc(=O)cc-3oc3cc(O)ccc23)c(C(=O)O)c1)C(N)=O)[C@@H](C)O)[C@@H](C)CC)C(C)(C)C` (For-[Tle]I[Tle]ITGPHEEYK(X5)-NH2), the Kd [1] is reported as > 5.8 µM.

`CC[C@H](C)[C@H](NC(=O)[C@@H](NC(=O)c1cccc(Cl)c1Cl)C(C)(C)C)C(=O)N[C@H](C(=O)N[C@H](C(=O)N[C@H](C(=O)NCCOCCOCC(=O)N[C@@H](CCCCNC(=S)Nc1ccc(-c2c3ccc(=O)cc-3oc3cc(O)ccc23)c(C(=O)O)c1)C(N)=O)[C@@H](C)O)[C@@H](C)CC)C(C)(C)C` ({Benzoyl(2,3-Cl2)}-[Tle]I[Tle]IT[AEEA]K(X5)-NH2) showed a Kd [1] of 0.7 µM.

For `CC[C@H](C)[C@H](NC(=O)[C@@H](NC(=O)c1ccc(C)c(F)c1F)C(C)(C)C)C(=O)N[C@H](C(=O)N[C@H](C(=O)N[C@H](C(=O)NCC(=O)N1CCC[C@H]1C(=O)N[C@@H](Cc1c[nH]cn1)C(=O)N[C@@H](CCC(=O)O)C(=O)N[C@@H](CCC(=O)O)C(=O)N[C@@H](Cc1ccc(O)cc1)C(=O)N[C@@H](CCCCNC(=S)Nc1ccc(-c2c3ccc(=O)cc-3oc3cc(O)ccc23)c(C(=O)O)c1)C(N)=O)[C@@H](C)O)[C@@H](C)CC)C(C)(C)C` (X6-[Tle]I[Tle]ITGPHEEYK(X5)-NH2), the Kd [1] was 0.074 µM.

Work on `CC[C@H](C)[C@H](NC(=O)[C@@H](NC(=O)c1cccc(Cl)c1Cl)C(C)(C)C)C(=O)N[C@H](C(=O)N[C@H](C(=O)N[C@H](C(=O)N[C@@H](CCC(N)=O)C(=O)N[C@@H](Cc1c[nH]cn1)C(=O)N[C@H](CC(C)C)C(=O)N[C@@H](CO)C(=O)NCCC(=O)N[C@@H](CCCCNC(=S)Nc1ccc(-c2c3ccc(=O)cc-3oc3cc(O)ccc23)c(C(=O)O)c1)C(N)=O)[C@@H](C)O)[C@@H](C)CC)C(C)(C)C` yielded a Kd [1] of 0.0091 µM.

Work on `CC[C@H](C)[C@H](NC(=O)[C@@H](NC(=O)[C@@H](NC(=O)[C@@H](NC(=O)[C@@H]1CCCN1C(=O)[C@H](Cc1cnc[nH]1)NC(=O)[C@@H]1CCCN1C(=O)CN)C(C)(C)C)[C@@H](C)CC)C(C)(C)C)C(=O)N[C@H](C(=O)NCC(=O)N1[C@H](C(=O)N[C@@H](Cc2cnc[nH]2)C(=O)N[C@@H](CCC(=O)O)C(=O)N[C@@H](CCC(=O)O)C(=O)O)CSC1(C)C)[C@@H](C)O` (H-GPHP[Tle]I[Tle]ITG[X3]HEE-OH) yielded a Kd [1] of 0.0026 µM and a half-life at 5 µM [2] of 6 h.

With `CC[C@H](C)[C@H](NC(=O)[C@@H](NC(=O)c1cccc(Cl)c1Cl)C(C)(C)C)C(=O)N[C@H](C(=O)N[C@H](C(=O)N[C@H](C(=O)N[C@@H](Cc1ccc(O)cc1)C(=O)N[C@H](CCC(=O)O)C(=O)N[C@@H](Cc1ccc(F)cc1)C(=O)N[C@@H](Cc1c[nH]cn1)C(=O)NCCC(=O)N[C@@H](CCCCNC(=S)Nc1ccc(-c2c3ccc(=O)cc-3oc3cc(O)ccc23)c(C(=O)O)c1)C(N)=O)[C@@H](C)O)[C@@H](C)CC)C(C)(C)C` the Kd [1] was 0.012 µM.

In the case of `CC[C@H](C)[C@H](NC(=O)[C@@H](NC(=O)c1c(F)c(F)c(F)c(F)c1F)C(C)(C)C)C(=O)N[C@H](C(=O)N[C@H](C(=O)N[C@H](C(=O)NCC(=O)N1CCC[C@H]1C(=O)N[C@@H](Cc1c[nH]cn1)C(=O)N[C@@H](CCC(=O)O)C(=O)N[C@@H](CCC(=O)O)C(=O)N[C@@H](Cc1ccc(O)cc1)C(=O)N[C@@H](CCCCNC(=S)Nc1ccc(-c2c3ccc(=O)cc-3oc3cc(O)ccc23)c(C(=O)O)c1)C(N)=O)[C@@H](C)O)[C@@H](C)CC)C(C)(C)C` ({Benzoyl(2,3,4,5,6-F5)}-[Tle]I[Tle]ITGPHEEYK(X5)-NH2), the Kd [1] is reported as 0.077 µM.

In the case of `CC[C@H](C)[C@H](NC(=O)[C@@H](NC(=O)c1cccc(Cl)c1Cl)C(C)(C)C)C(=O)N[C@H](C(=O)N[C@H](C(=O)N[C@H](C(=O)N[C@@H](CC(=O)O)C(=O)N[C@@H](CCC(N)=O)C(=O)N[C@@H](Cc1ccc(O)cc1)C(=O)N[C@H](CCCCN)C(=O)NCCC(=O)N[C@@H](CCCCNC(=S)Nc1ccc(-c2c3ccc(=O)cc-3oc3cc(O)ccc23)c(C(=O)O)c1)C(N)=O)[C@@H](C)O)[C@@H](C)CC)C(C)(C)C`, the Kd [1] is reported as 0.022 µM.

In the case of `CC[C@H](C)[C@H](NC(=O)[C@@H](NC(=O)c1cccc(Cl)c1Cl)C(C)(C)C)C(=O)N[C@H](C(=O)N[C@H](C(=O)N[C@H](C(=O)N[C@@H](CC(=O)O)C(=O)N[C@@H](CCC(N)=O)C(=O)N[C@@H](Cc1ccc(O)cc1)C(=O)N[C@@H](CCCNC(=N)N)C(=O)NCCC(=O)N[C@@H](CCCCNC(=S)Nc1ccc(-c2c3ccc(=O)cc-3oc3cc(O)ccc23)c(C(=O)O)c1)C(N)=O)[C@@H](C)O)[C@@H](C)CC)C(C)(C)C` ({Benzoyl(2,3-Cl2)}-[Tle]I[Tle]ITDQYR[βAla]K(X5)-NH2), the Kd [1] is reported as 0.064 µM.

In the case of `CC[C@H](C)[C@H](NC(=O)[C@@H](NC(=O)C1CCCC1)C(C)(C)C)C(=O)N[C@H](C(=O)N[C@H](C(=O)N[C@H](C(=O)NCC(=O)N1CCC[C@H]1C(=O)N[C@@H](Cc1c[nH]cn1)C(=O)N[C@@H](CCC(=O)O)C(=O)N[C@@H](CCC(=O)O)C(=O)N[C@@H](Cc1ccc(O)cc1)C(=O)N[C@@H](CCCCNC(=S)Nc1ccc(-c2c3ccc(=O)cc-3oc3cc(O)ccc23)c(C(=O)O)c1)C(N)=O)[C@@H](C)O)[C@@H](C)CC)C(C)(C)C` (Cyclopentanecarbonyl-[Tle]I[Tle]ITGPHEEYK(X5)-NH2), the Kd [1] is reported as 0.357 µM.

With `CC[C@H](C)[C@H](NC(=O)[C@@H](NC(=O)[C@@H]1CCCN1C(=O)[C@H](Cc1cnc[nH]1)NC(=O)[C@@H]1CCCN1C(=O)CN)C(C)C)C(=O)N[C@H](C(=O)N[C@H](C(=O)N[C@H](C(=O)NCC(=O)N1CCC[C@H]1C(=O)N[C@@H](Cc1cnc[nH]1)C(=O)N[C@@H](CCC(=O)O)C(=O)N[C@@H](CCC(=O)O)C(=O)O)[C@@H](C)O)[C@@H](C)CC)C(C)C` the half-life at 5 µM [2] was 1 h.

Compound `CC[C@H](C)[C@H](NC(=O)[C@@H](NC(=O)c1cccc(Cl)c1Cl)C(C)(C)C)C(=O)N[C@H](C(=O)N[C@H](C(=O)N[C@H](C(=O)N[C@@H](CCC(N)=O)C(=O)N[C@@H](Cc1c[nH]cn1)C(=O)N[C@H](CC(C)C)C(=O)N[C@@H](Cc1c[nH]cn1)C(=O)NCCC(=O)N[C@@H](CCCCNC(=S)Nc1ccc(-c2c3ccc(=O)cc-3oc3cc(O)ccc23)c(C(=O)O)c1)C(N)=O)[C@@H](C)O)[C@@H](C)CC)C(C)(C)C` has a Kd [1] of 0.0047 µM.

For `CC[C@H](C)[C@H](NC(=O)[C@@H](NC(=O)c1ccccc1)C(C)(C)C)C(=O)N[C@H](C(=O)N[C@H](C(=O)N[C@H](C(=O)NCC(=O)N1CCC[C@H]1C(=O)N[C@@H](Cc1c[nH]cn1)C(=O)N[C@@H](CCC(=O)O)C(=O)N[C@@H](CCC(=O)O)C(=O)N[C@@H](Cc1ccc(O)cc1)C(=O)N[C@@H](CCCCNC(=S)Nc1ccc(-c2c3ccc(=O)cc-3oc3cc(O)ccc23)c(C(=O)O)c1)C(N)=O)[C@@H](C)O)[C@@H](C)CC)C(C)(C)C` (Bz-[Tle]I[Tle]ITGPHEEYK(X5)-NH2), the Kd [1] was 0.224 µM.

For `CC[C@H](C)[C@H](NC(=O)[C@@H](NC(=O)C1CCCCC1)C(C)(C)C)C(=O)N[C@H](C(=O)N[C@H](C(=O)N[C@H](C(=O)NCC(=O)N1CCC[C@H]1C(=O)N[C@@H](Cc1c[nH]cn1)C(=O)N[C@@H](CCC(=O)O)C(=O)N[C@@H](CCC(=O)O)C(=O)N[C@@H](Cc1ccc(O)cc1)C(=O)N[C@@H](CCCCNC(=S)Nc1ccc(-c2c3ccc(=O)cc-3oc3cc(O)ccc23)c(C(=O)O)c1)C(N)=O)[C@@H](C)O)[C@@H](C)CC)C(C)(C)C` (Cyclohexanecarbonyl-[Tle]I[Tle]ITGPHEEYK(X5)-NH2), the Kd [1] was 0.207 µM.
